According to patent publication US7741493B2, “Heterocyclic compounds as P2X7 ion channel blockers” (Aventis Pharmaceuticals Inc., priority 2003, dated 2010):
“And” between values parts separate entries of the source, which are not always exact repeats. Equal values may be shown once.

Target: T1, P2X7 (Homo sapiens, UniProt Q99572)
T1 sequence (Q99572 1-595): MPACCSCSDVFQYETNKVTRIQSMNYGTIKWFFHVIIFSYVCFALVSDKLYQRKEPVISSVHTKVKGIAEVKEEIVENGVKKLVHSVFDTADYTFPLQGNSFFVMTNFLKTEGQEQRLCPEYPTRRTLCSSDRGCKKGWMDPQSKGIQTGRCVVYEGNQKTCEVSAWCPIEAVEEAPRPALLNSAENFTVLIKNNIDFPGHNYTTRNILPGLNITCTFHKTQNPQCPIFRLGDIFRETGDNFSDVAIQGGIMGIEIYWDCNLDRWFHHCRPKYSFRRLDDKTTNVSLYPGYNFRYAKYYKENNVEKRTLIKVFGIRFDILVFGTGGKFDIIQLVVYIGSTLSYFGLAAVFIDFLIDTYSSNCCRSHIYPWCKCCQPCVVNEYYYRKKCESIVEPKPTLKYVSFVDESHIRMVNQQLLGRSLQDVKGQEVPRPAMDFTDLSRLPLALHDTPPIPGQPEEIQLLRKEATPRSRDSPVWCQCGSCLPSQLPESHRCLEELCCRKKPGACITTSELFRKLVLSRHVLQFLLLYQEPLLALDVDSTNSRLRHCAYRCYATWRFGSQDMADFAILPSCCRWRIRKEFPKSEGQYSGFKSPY
Test: YO-PRO-1 dye uptake assay in U373 cells stably expressing P2X7
Format: cell-based
Set-up: The complete open reading frame of human P2X7 was amplified from Incyte clone 148057; expressed in transfected cells
Conditions: IC50 (nM), dye uptake through P2X7, U373 cells, 300 μM BzATP, 5 μM YO-PRO-1, test compounds 30 nM to 3 μM
Outline: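 U373 cells stably expressing human P2X7 preincubated 20 min at 37° C. with compound (30 nM to 3 μM) in Mg/Ca-free HBSS. YO-PRO-1 (5 μM final) and BzATP (300 μM final) then added for 1.5 h at 37° C.; dye-uptake fluorescence compared with compound-free control.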

SMILES	IC50 [nM]
c1ccc(CCC2=N[C@H](c3ccccc3)[C@H](c3ccccc3)N2)cc1 [cis-4,5-diphenyl-2-(2-phenylethyl)-4,5-dihydro-1H-imidazole]	77
Fc1cccc(CC2=N[C@H](c3ccccc3)[C@H](c3ccccc3)N2)c1 [cis-4,5-diphenyl-2-(3-fluorobenzyl)-4,5-dihydro-1H-imidazole]	80

Same assay, conditions: dye uptake through P2X7, U373 cells, 300 μM BzATP, 5 μM YO-PRO-1, test compounds 30 nM to 3 μM; read-out: IC50

SMILES	IC50
Clc1ccc(CNC2=N[C@@H](c3ccccc3)[C@@H](c3ccccc3)N2)cc1Cl [cis-4,5-diphenyl-2-(3,4-dichlorobenzyl)amino-4,5-dihydro-1H-imidazole]	307 nM
Brc1cccc(CNC2=N[C@@H](c3ccccc3)[C@@H](c3ccccc3)N2)c1 [cis-4,5-diphenyl-2-(3-bromobenzyl)amino-4,5-dihydro-1H-imidazole]	225 nM
Clc1cccc(CC2=N[C@@H](c3ccccc3)[C@@H](c3ccccc3)N2)c1 [cis-4,5-diphenyl-2-(3-chlorobenzyl)-4,5-dihydro-1H-imidazole]	34 nM
Clc1cccc(CNC2=N[C@@H](c3ccccc3)[C@@H](c3ccccc3)N2)c1 [cis-4,5-diphenyl-2-(3-chlorobenzyl)amino-4,5-dihydro-1H-imidazole]	164 nM
Clc1cccc(CSC2=N[C@@H](c3ccccc3)[C@@H](c3ccccc3)N2)c1 [cis-4,5-diphenyl-2-(3-chlorobenzyl)thio-4,5-dihydro-1H-imidazole]	634 nM
Fc1cccc(CC2=N[C@H](c3ccccc3)[C@H](c3ccccc3)N2)c1 [cis-4,5-diphenyl-2-(3-fluorobenzyl)-4,5-dihydro-1H-imidazole]	84 nM
Fc1cccc(CSC2=N[C@@H](c3ccccc3)[C@@H](c3ccccc3)N2)c1 [cis-4,5-diphenyl-2-(3-fluorobenzyl)thio-4,5-dihydro-1H-imidazole]	240 nM
COc1cccc(CNC2=N[C@@H](c3ccccc3)[C@@H](c3ccccc3)N2)c1 [cis-4,5-diphenyl-2-(3-methoxybenzyl)amino-4,5-dihydro-1H-imidazole]	386 nM
Cc1cccc(CC2=N[C@@H](c3ccccc3)[C@@H](c3ccccc3)N2)c1 [cis-4,5-diphenyl-2-(3-methylbenzyl)-4,5-dihydro-1H-imidazole]	376 nM
Cc1cccc(CNC2=N[C@@H](c3ccccc3)[C@@H](c3ccccc3)N2)c1 [cis-4,5-diphenyl-2-(3-methylbenzyl)amino-4,5-dihydro-1H-imidazole]	187 nM
Cc1cccc(CSC2=N[C@@H](c3ccccc3)[C@@H](c3ccccc3)N2)c1 [cis-4,5-diphenyl-2-(3-methylbenzyl)thio-4,5-dihydro-1H-imidazole]	722 nM
Clc1ccc(CC2=N[C@@H](c3ccccc3)[C@@H](c3ccccc3)N2)cc1 [cis-4,5-diphenyl-2-(4-chlorobenzyl)-4,5-dihydro-1H-imidazole]	269 nM and 270 nM
Clc1ccc(CNC2=N[C@@H](c3ccccc3)[C@@H](c3ccccc3)N2)cc1 [cis-4,5-diphenyl-2-(4-chlorobenzyl)amino-4,5-dihydro-1H-imidazole]	471 nM
Fc1ccc(CC2=N[C@H](c3ccccc3)[C@H](c3ccccc3)N2)cc1 [cis-4,5-diphenyl-2-(4-fluorobenzyl)-4,5-dihydro-1H-imidazole]	46 nM
Fc1ccc(CSC2=N[C@@H](c3ccccc3)[C@@H](c3ccccc3)N2)cc1 [cis-4,5-diphenyl-2-(4-fluorobenzyl)thio-4,5-dihydro-1H-imidazole]	300 nM
Cc1ccc(CC2=N[C@H](c3ccccc3)[C@H](c3ccccc3)N2)cc1 [cis-4,5-diphenyl-2-(4-methylbenzyl)-4,5-dihydro-1H-imidazole]	83 nM and 80 nM
COC(C1=N[C@@H](c2ccccc2)[C@@H](c2ccccc2)N1)c1ccccc1 (stereo partly drawn) [cis-4,5-diphenyl-2-(methoxy-phenyl-methyl)-4,5-dihydro-1H-imidazole]	101 nM
c1ccc([C@H]2NC(CCc3ccccn3)=N[C@H]2c2ccccc2)cc1 [cis-4,5-diphenyl-2-[2-(2-pyridyl)ethyl)-4,5-dihydro-1H-imidazole]	720 nM
Fc1ccc(CCNC2=N[C@@H](c3ccccc3)[C@@H](c3ccccc3)N2)cc1 [cis-4,5-diphenyl-2-[2-(4-fluorophenyl)ethylamino]-4,5-dihydro-1H-imidazole]	331 nM
